Laboratory results from patent US20110009616A1, “AGENT FOR PREVENTING ARTERIOSCLEROSIS” (priority 2006, published 2011).
Where two headings read alike, the source gives them in different places.

Key:
SR-AII = target: T1, SR-AII (Homo sapiens, UniProt P21757); assay: DiI-OxLDL uptake into cells expressing SR-AII (Example 7); assay type: cell-based; settings: FIG. 6
T1 construct: expressed in transfected cells; host or cells: COS-1 cells (transient, 48 h), pDEST26
T1 sequence (P21757 1-358 isoform P21757-2): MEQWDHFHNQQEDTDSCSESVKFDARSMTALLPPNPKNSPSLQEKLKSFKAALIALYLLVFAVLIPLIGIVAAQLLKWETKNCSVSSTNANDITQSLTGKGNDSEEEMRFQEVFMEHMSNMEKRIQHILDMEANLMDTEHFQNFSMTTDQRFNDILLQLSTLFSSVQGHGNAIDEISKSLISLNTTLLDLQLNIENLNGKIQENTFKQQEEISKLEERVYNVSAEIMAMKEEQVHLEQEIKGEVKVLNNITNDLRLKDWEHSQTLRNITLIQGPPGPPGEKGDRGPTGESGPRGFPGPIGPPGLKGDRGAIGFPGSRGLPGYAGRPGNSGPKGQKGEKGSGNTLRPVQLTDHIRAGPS
Description: As for cDNA cloning of human SR-AII, the full-length sequence (1,077 base pairs) was obtained by PCR using cDNA derived from human normal lien (Invitrogen) as a template. Additionally a CACC sequence was added to 5′-terminal of the upstream primer. The amplified PCR product was inserted to a pENTR/D-TOPO vector (Invitrogen) and transformed into Mach1 cells (Invitrogen). From the obtained transformant, clones supposed to have the plasmid which was correctly inserted with the SR-AII full-length sequence were selected in usual ways such as a colony PCR method, and the plasmid sequence was sequenced. Furthermore, for the plasmid ascertained to have the correct sequence by sequencing, a site-specific recombination reaction to pDEST26 (Invitrogen) as an expression vector for animal cells was carried out according to a manual. The obtained pDEST26 vector having the full-length sequence of […] was transformed into COS-1 cells (Health Science Research Resources Bank), and cultivated for 48 hours to obtain a transient expressed cell line. […] Nystatin (manufactured by Wako) was used as a specific inhibitor of caveola transport.

[1] = rat; Non-patent Document 16; cited from earlier work
hLOX-1 = target: T2, hLOX-1 (Homo sapiens, UniProt P78380); assay: Fluorescently labeled oxidized LDL uptake into CHO cells expressing hLOX-1, tetracycline induction (Example 6); assay type: cell-based; settings: FIG. 5; control = 100%; compared with anti-hLOX antibody
T2 construct: expressed in transfected cells; host or cells: CHO-K1 Tet-On cell line (Clontech), pTRE-hLOX1 (B), doxycycline induction
Description: As for the same compounds as in Example 5, using Chinese hamster ovary (CHO) cells stably expressing bLOX-1, an ability to suppress fluorescently labeled oxidized LDL uptake into the CHO cells through the bLOX-1 was evaluated. Furthermore, as for the hLOX-1, in the CHO cells using an induction system of tetracycline gene expression, an ability to suppress fluorescently labeled oxidized LDL uptake through the hLOX-1 was evaluated.
As the CHO cells which express the hLOX-1 depending on tetracycline concentrations, the cells transfected with the plasmid described below in a known method were used. The transfected plasmid has a system where a hLOX-1 coding region integrated in pcDNA3.1-hLOX1-V5 (Journal of Molecular and Cellular Cardiology 39 (3) 553-561 (2005)) is mounted in a tetracycline response vector and the expression of hLOX-1 can be controlled depending on the concentration of tetracycline or doxycycline.
An assay using the CHO cells was carried out in the following manner. […] Then, the oxidized LDL labeled with 1,1′-dioctadecyl-3,3,3′,3′-tetramethylindocarbocyanine perchlorate (DiI, manufactured by Invitrogen), a carbocyanine fluorescence pigment, was applied to each well so as to be 5 μg/mL, and, under the environment described above, the uptake of the fluorescently labeled oxidized LDL was performed into the CHO cells for 4 hours. […]

smooth muscle cells = assay: Oxidized LDL uptake into smooth muscle cells, IN Cell Analyzer (Example 8); assay type: cell-based; settings: FIG. 7
Description: As for the compounds in Examples 1 and 2 and Comparative Example 6, the abilities to suppress the oxidized LDL uptake into the smooth muscle cells were evaluated in a similar method to Example 6.
The smooth muscle cells were prepared to 1×10^5 cells/mL and seeded into a 96-well plate. After cultivating for two days, the cells were treated by each inhibitor in a similar method to Example 6. After the treatment of each inhibitor, the cells were washed with PBS three times and fixed with a 10% formalin solution at room temperature in the dark for 10 minutes. The fixed cells were washed with ultrapure water twice and the nuclei were dyed with DAPI. These cells were analyzed with “IN Cell Analyzer” (manufactured by GE Healthcare Bio-Sciences KK), and the uptake number of Dil-labeled oxidized LDL into the smooth muscle cells was divided by the number of nuclei. Furthermore, 4 fields of view per well were measured and the measurements were n=3 per treatment.

[2] = human; Non-patent Document 15; cited from earlier work

C=Cc1c(C)c2cc3nc(c4c5[nH]c(cc6nc(cc1[nH]2)C(C)=C6CC)c(C)c5C(=O)[C@@H]4C(=O)OC)[C@@H](CCC(=O)O)[C@@H]3C [pheophorbide a]
ability to suppress oxidized LDL uptake by SR-A (SR-AII): the ability to suppress the oxidized LDL uptake by SR-A
ingestion causing photosensitivity disease [1]: ≥ 220 mg/kg
amount of oxidized LDL uptake into CHO cells expressing hLOX-1 (hLOX-1): stronger uptake inhibition on hLOX-1 than that of the anti-hLOX antibody
ability to suppress oxidized LDL uptake in smooth muscle cells (smooth muscle cells): very strong ability to suppress the uptake
suppression of oxidized LDL uptake in smooth muscle cells, compared with anti-LOX-1 antibody (smooth muscle cells): stronger suppression effect than that of the anti-LOX-1 antibody
ingestion causing photosensitivity disease [2]: ≥ 500 mg/day
